These results are taken from patent publication US6355687B1, “Cosmetic compositions containing substituted iminodibenzyl or fluorene derivatives” (Unilever Home and Personal Care USA, division of Conopco, …, priority 2000, dated 2002).

In the test the test system is human sebocytes. As to the kind of experiment: Sebum suppression: 14C-acetate incorporation in cultured human sebocytes, test agent alone or with retinol. It is filed as cell-based. The settings on record: for activity at 1 µM / activity at 10 µM: read-out: % of Control. Here is the method: Compounds A through H were tested for their potential to suppress sebum expression, alone or in the presence of a retinoid.
Secondary cultures of human sebocytes obtained from an adult […] were grown in 48-well tissue culture plates (Costar Corp.; Cambridge, Mass.) or 96-well tissue culture plates (Packard Co.; Meriden, Conn.) until confluent. Sebocyte growth medium consisted of Clonetics Keratinocyte Basal Medium (KBM) supplemented with 14 μg/ml bovine pituitary extract, 0.4 μg/ml hydrocortisone, 5 μg/ml insulin, 10 ng/ml epidermal growth factor, 1.2×10−10 M cholera toxin, 100 units/ml penicillin, and 100 μg/ml streptomycin. All cultures were incubated at 37° C. in the presence of 7.5% CO2. Medium was changed three times per week.
On the day of experimentation, the growth medium was removed and the sebocytes washed three times with sterile Dulbecco's Modified Eagle Medium (DMEM; phenol red free). Fresh DMEM was added to each sample (duplicates, triplicates, or quadruplicates depending on the experiment) with 5 microliter of test agent solubilized in ethanol either alone or in the presence of one or 10 micromolar of retinol. Controls consisted of addition of ethanol alone, retinol alone, or phenol red, which has estrogen-like activity and is included as a positive control.
Each plate was returned to the incubator for 20 hours followed by the addition of 14C-acetate buffer (5 mM final concentration, 56 mCi/mmol specific activity). Sebocytes were returned to the incubator for four hours after which each culture was rinsed three times with phosphate buffered saline to remove unbound label. Radioactive label remaining in the sebocytes was harvested and counted using a Beckman scintillation counter.

Where [1] appears, read: Homo sapiens, 1 μM test compound + 1 μM Retinol.
The mark [2] stands for this setting: Homo sapiens, 1 μM test compound + 10 μM Retinol.
Where [3] appears, read: Homo sapiens, 1 μM test compound alone.
Setting [4] is: Homo sapiens, 10 μM test compound + 1 μM Retinol.
Setting [5] is: Homo sapiens, 10 μM test compound + 10 μM Retinol.
The mark [6] stands for this setting: Homo sapiens, 10 μM test compound alone.
Setting [7] is: 10 μM test compound + 10 μM Retinol.

The structures appear in SMILES notation. Several values for one entry are separate records, joined by “and”; a condition that tells them apart may be missing. Equal entries are not always repeated. Where two headings read alike, the source gives them in different places.

`CC1=C(/C=C/C(C)=C/C=C/C(C)=C/CO)C(C)(C)CCC1` [Retinol, retinol, reference compound]: the “% of Control” value (1 μM Retinol alone) was 98.4% and 99.9% and 85.5% and 99.3%; the “% of Control” value (10 μM Retinol alone) was 101.8% and 111.7% and 100.1% and 81.8% and 104.8% and 95.2%. In addition, the sebum suppressive activity entry (alone, summary in words) is “inactive”.

For the compound `O=C(Nc1ccc(O)cc1)N1c2ccccc2CCc2ccccc21` [Compound C], the activity at 1 µM was found to be 83.7% under setting [1], 70.3% under setting [2] and 91.4% under setting [3]. In addition, the activity at 10 µM was 27.5% under setting [4], 1.4% under setting [5] and 41.5% under setting [6]. For the same compound, the “sebum suppressive activity when combined with retinol” value (in the presence of retinol / a retinoid, summary in words) is listed as “improved activity”.

On to `CCCN(CCO)C(=O)CC1c2ccccc2-c2ccccc21` [Compound H], for which the activity at 1 µM amounted to 76.8% under setting [1], 68% under setting [2] and 65.9% under setting [3]. Moreover, the activity at 10 µM by setting is: under setting [4], 71%; under setting [5], 73.5%; under setting [6], 71.1%.

As for `CC(O)c1cccc(NC(=O)N2c3ccccc3CCc3ccccc32)c1` (stereo not drawn) [Compound A], the “% of Control” value is 86.2% (1 μM test compound + 1 μM Retinol); 85.8% and 45.9% (10 μM test compound + 1 μM Retinol); 80.1% and 44.3% under setting [7]; 88.8% (10 μM test compound alone, 10 µM).

For the compound `O=S1(=O)OC(c2ccc(O)cc2)(c2ccc(O)cc2)c2ccccc21` [Phenol Red, phenol red, reference compound], the “% of Control” value (28 μM Phenol Red (positive control)) is recorded as 84.4%. Where the note is “Homo sapiens, 28 μM Phenol Red (positive control)”, the activity at 28 µM turned out to be 67.6%.

Regarding `O=C(Nc1ccc(OC(F)(F)F)cc1)N1c2ccccc2CCc2ccccc21` [Compound B], the activity at 1 µM runs as follows: under setting [1], 86%; under setting [2], 74.2%; under setting [3], 88.9%. Also, the activity at 10 µM under setting [4] worked out at 96%, the activity at 10 µM under setting [5] came to 111% and the activity at 10 µM under setting [6] worked out at 82%.

As to `O=C(CC1c2ccccc2-c2ccccc21)N1CCC(O)(c2ccccc2)CC1` [Compound G], the “% of Control” value (1 μM test compound + 10 μM Retinol) was 80.2% and 102.9%; the “% of Control” value (1 μM test compound alone, 1 µM) was 77.3% and 105.2%; the “% of Control” value under setting [7] came to 75.4%. Also, the activity at 1 µM under setting [1] worked out at 114%. Further, the activity at 10 µM runs as follows: under setting [4], 65.3%; under setting [5], 63.8%; under setting [6], 63%.

Consider `O=C(CC1c2ccccc2-c2ccccc21)N1CCC(O)(c2ccc(Cl)cc2)CC1` [Compound F], for which, for the setting “10 μM test compound alone”, the “% of Control” value was 26.7% and 75.0%. For the same compound, the activity at 1 µM is 35.7% under setting [1] and 29.3% under setting [2]. Besides, the activity at 10 µM under setting [4] came out at 15.3%.

For `Cc1c(Cl)cccc1NC(=O)N1c2ccccc2CCc2ccccc21` [Compound D], the “% of Control” value runs as follows: (100 μM test compound + 1 μM Retinol) 1.1%; (100 μM test compound + 10 μM Retinol) 0.5%; (100 μM test compound alone) 1.8%. Moreover, the activity at 1 µM under setting [1] came out at 75.4%, the activity at 1 µM under setting [2] came out at 74.3% and the activity at 1 µM under setting [3] came out at 80.1%. The activity at 10 µM runs as follows: under setting [4], 105%; under setting [5], 88.7%; under setting [6], 101%.
